Here are results for 31 compounds from publication PMC12040169 (PLOS Biology, 2025).

The first data set can be described thus: in vitro. As to conditions: human, hela cells, % viability.
Usually viability stands for a read-out of living cells in per cent, often relative to untreated cells. Turning to `Cc1ccc2oc(-c3ccc(C)c(NC(=O)c4cc([N+](=O)[O-])ccc4Cl)c3)nc2c1` [CBK263055], the viability at 28.5 h, 10 µM came out at 94.5%.

`Cc1ccc(C(=O)Nc2c(C(=O)Nc3cccnc3)cnn2-c2ccccc2)cc1` [CBK263056]: the viability at 28.5 h, 10 µM came out at 92.4%.

Regarding `O=C(Cn1nnc(-c2ccccc2)n1)Nc1cccc([N+](=O)[O-])c1` [CBK263057], the viability at 28.5 h, 10 µM is 97.9%.

As to `CCOC(=O)c1c(NC(=O)Cn2cnc([N+](=O)[O-])n2)sc2c1CCC(C)C2` (stereo not shown) [CBK263058], the viability at 28.5 h, 10 µM is 120%.

As to `CC(Sc1nc2ccccc2[nH]1)C(=O)O` (stereo not shown) [CBK263063], the viability at 28.5 h, 10 µM was 101%.

Take `S=C(NCCN1CCCCC1)NCc1ccccc1` [CBK263066]: the viability at 28.5 h, 10 µM is 112%.

With `Nc1nc(N)nc(Cn2c(-c3nonc3N)nc3ccccc32)n1` [CBK263072], the viability at 28.5 h, 10 µM is 105%.

As to `Cc1c(Nc2nc3nonc3nc2Nc2cccc(Cl)c2)c(=O)n(-c2ccccc2)n1C` [CBK263073], the viability at 28.5 h, 10 µM came out at 103%.

Regarding `C=CCNc1nc(NCCN2CCOCC2)nc(N2CCOCC2)n1` [CBK263074], the viability at 28.5 h, 10 µM was found to be 112%.

For the compound `O=S(=O)(Nc1ccc(N2CCCCC2)cc1)c1cccc2cccnc12` [CBK263077], the viability at 28.5 h, 10 µM came out at 93.1%.

Consider `O=C(O)C(Cc1ccccc1)N1C(=O)/C(=C/c2cccc([N+](=O)[O-])c2)SC1=S` (stereo not shown) [CBK263078], for which the viability at 28.5 h, 10 µM was 98.4%.

For `O=C(O)c1cccnc1SC1CC(=O)N(c2ccc([N+](=O)[O-])cc2)C1=O` (stereo not shown) [CBK263079], the viability at 28.5 h, 10 µM was 100%.

Consider `N#C/C(=C\c1ccc(-c2cc(Cl)ccc2Cl)o1)C(=O)Nc1cccc2cccnc12` [CBK263082], for which the viability at 28.5 h, 10 µM turned out to be 110%.

For the compound `COc1ccc(C(O)c2coc3ccc(O)c(CN(C)C)c23)cc1` (stereo not shown) [CBK263083], the viability at 28.5 h, 10 µM stood at 96.4%.

In the case of `Cc1ccc(C(=O)c2coc3ccc(OCC(=O)O)cc23)cc1` [CBK263084], the viability at 28.5 h, 10 µM is 86.6%.

Turning to `O=C(O)c1ccc(N2C(=O)/C(=C/c3c[nH]c4ccccc34)SC2=S)cc1` [CBK263085], the viability at 28.5 h, 10 µM was 90.4%.

Consider `O=C(Cc1n[nH]c(=O)[nH]c1=O)N/N=C/c1cccc(Br)c1` [CBK263086], for which the viability at 28.5 h, 10 µM was determined as 83%.

For `COCCCNC(NC(=O)c1ccc(C)cc1)C(Cl)(Cl)Cl` (stereo not shown) [CBK263087], the viability at 28.5 h, 10 µM is 107%.

For `NS(=O)(=O)c1ccc(CCNC(=O)c2ccc(C#Cc3ccccc3)cc2)cc1` [CBK263089], the viability at 28.5 h, 10 µM was 95.9%.

For `CC(C)c1ccc(/C=N/Nc2nc(-c3ccccc3)cs2)cc1` [CBK263091], the viability at 28.5 h, 10 µM was 94.5%.

Regarding `O=C(c1ccc(C#CC2(O)CCCCC2)cc1)N1CCN(Cc2ccccc2)CC1` [CBK263094], the viability at 28.5 h, 10 µM is 100%.

With `CCOC(=O)c1cc2c(=O)n3cc(C)ccc3nc2n(Cc2cccnc2)c1=N` [CBK263095], the viability at 28.5 h, 10 µM turned out to be 90.5%.

As to `Cc1nc(N/N=C/c2ccc3c(c2)OCO3)sc1C` [CBK263098], the viability at 28.5 h, 10 µM came to 106%.

As to `CC(C)(O)C#Cc1ccc(C(=O)N2CCN(Cc3ccccc3)CC2)cc1` [CBK263100], the viability at 28.5 h, 10 µM is 80.3%.

Consider `NC(=O)c1c(NC(=O)CSc2ccc(Cl)cc2)sc2c1CCCC2` [CBK263101], for which the viability at 28.5 h, 10 µM is 77.7%.

In the case of `CCCc1ccc(OCC(=O)Nc2ccccc2C(N)=O)cc1` [CBK263103], the viability at 28.5 h, 10 µM worked out at 88.7%.

Consider `O=C(O)C(Cc1ccccc1)N1C(=O)/C(=C/c2ccc([N+](=O)[O-])cc2)SC1=S` (stereo not shown) [CBK263108], for which the viability at 28.5 h, 10 µM turned out to be 84.3%.

On to `O=C1NC(=Nc2ccccn2)SC1Cc1ccc(Br)cc1` (stereo not shown) [CBK263109], for which the viability at 28.5 h, 10 µM worked out at 82.3%.

For `CC(C)(O)C#Cc1ccc(C(=O)NCCc2ccc(S(N)(=O)=O)cc2)cc1` [CBK263110], the viability at 28.5 h, 10 µM came out at 98.2%.

Consider `Cc1c(Cc2ccccc2)c(N2CCN(C/C=C/c3ccccc3)CC2)n2c(nc3ccccc32)c1C#N` [CBK263112], for which the viability at 28.5 h, 10 µM was 101%.

The data set is the same for the next values; noted with them: human, hela cells, % viability, bulk resorufin, single well.
In the case of `O=C(O)CCC(=O)OC1N=C(c2ccccc2Cl)c2cc(Br)ccc2NC1=O` (stereo not shown) [CBK263076], the viability at 28.5 h, 10 µM was 85.2%.
